System: common mosquito (Culex pipiens pallens)
Test: Test Example 2: knock down test, forced contact with treated glass petri dish
Format: in vivo
Details: 5 minutes after release, ten female adults, 3 min contact
Experimental: Acetone-diluted solutions were prepared so that predetermined dosage of the Guanidine Compound and the ester compound B on glass plates indicated in Table 1 would be applied. The acetone-diluted solutions (0.5 ml) were treated on the underside of glass petri dishes with a diameter of 7 cm uniformly and air-dried. Ten female adults of common mosquito (Culex pipiens pallens) were collected by means of a pocket aspirator and placed into the petri dish, then contacted compulsorily with the treated underside of glass petri dishes by covering with a lucid plate made of polyvinyl chloride.
Three minutes after covering, said common mosquitoes were released in nyron cage (size: 16.5 cm×15.5 cm×22 cm). At a given period of time after releasing, the number of knocked down insects was counted and a knock down rate was calculated.

SMILES | Knock down rate (%) after 5 minutes (Guanidine Compound alone 0.000125 mg/plate) [%] | Knock down rate (%) after 5 minutes (Guanidine Compound alone 0.00025 mg/plate) [%] | Knock down rate (%) after 5 minutes (Guanidine Compound alone 0.0005 mg/plate) [%] | Knock down rate (%) after 5 minutes (Guanidine Compound alone 0.00125 mg/plate) [%] | Knock down rate (%) after 5 minutes (ester compound B alone 0.000125 mg/plate) [%] | Knock down rate (%) after 5 minutes (ester compound B alone 0.00025 mg/plate) [%]
CN/C(=N\[N+](=O)[O-])NCc1cnc(Cl)s1 [reference 1, (E)-1-(2-chloro-1,3-thiazol-5-ylmethyl)-3-methyl-2-nitroguanidine] | 10 | 10 | 10 | 20 | – | –
C/C=C\[C@@H]1[C@@H](C(=O)OCc2c(F)c(F)c(COC)c(F)c2F)C1(C)C (relative stereo) [reference 4, 2,3,5,6-tetrafluoro-4-methoxymethylbenzyl=(1R)-trans-3-(1-propenyl(Z))-2,2-dimethylcyclopropanecarboxylate] | – | – | – | – | 10 | 20
